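1) Cells in 96-well plates. 2) Compound, 48 h, 5 concentrations. 3) Linear interpolation between surrounding doses. 4) Unreached endpoint = highest concentration. GI50: concentration for 50% inhibition of growth. The concentration for full growth arrest is given as TGI.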
Experiments:
Test in all cases: inhibition of tumour cell growth, NCI panel, 48 h
MDA-MB-435 = test system: MDA-MB-435
SK-MEL-5 melanoma = test system: SK-MEL-5 melanoma
SW-620 colon = test system: SW-620 colon
MCF7 breast = test system: MCF7 breast
M14 melanoma = test system: M14 melanoma
CAKI-1 renal = test system: CAKI-1 renal
TK-10 renal = test system: TK-10 renal
U251 CNS = test system: U251 CNS
MDA-N = test system: MDA-N
M19-MEL melanoma = test system: M19-MEL melanoma

Row | SMILES | TGI (MDA-MB-435) [µM] | TGI (SK-MEL-5 melanoma) [µM] | TGI (SW-620 colon) [µM] | TGI (MCF7 breast) [µM] | TGI (M14 melanoma) [µM] | TGI (CAKI-1 renal) [µM] | TGI (TK-10 renal) [µM] | TGI (U251 CNS) [µM] | GI50 (MDA-MB-435) [µM] | GI50 (SK-MEL-5 melanoma) [µM] | GI50 (SW-620 colon) [µM] | GI50 (MCF7 breast) [µM] | GI50 (M14 melanoma) [µM] | GI50 (CAKI-1 renal) [µM] | GI50 (TK-10 renal) [µM] | TGI (MDA-N) [µM] | TGI (M19-MEL melanoma) [µM] | GI50 (U251 CNS) [µM] | GI50 (M19-MEL melanoma) [µM]
1 | Fc1c(F)c(C(F)(F)F)c(F)c(F)c1N/N=C/c1cn(Cc2ccccc2)c2ccccc12 | 54.5 | 36 | > 100 | 69.5 | 43 | 54.3 | 66.4 | > 100 | – | – | – | – | – | – | – | – | – | – | –
2 | COc1cc2c(cc1OCCCN1CCN(c3ncnc4ccccc34)CC1)N=CC1CCCN1C2=O (configuration not stated) | 0.0498 | 0.0323 | 0.0556 | 1.02 | 0.138 | 0.0574 | 1.08 | – | 0.0214 | 0.0168 | 0.0198 | 0.0189 | 0.0303 | 0.0191 | 0.0293 | – | – | – | –
3 | C[C@]12CCC(=O)C=C1CC[C@@H]1[C@@H]2[C@@H](O)C[C@@]2(C)[C@H]1CC[C@]2(O)C(=O)COC(=O)C1CCCC1 | > 100 | > 100 | > 100 | > 100 | > 100 | > 100 | > 100 | > 100 | – | – | – | – | – | – | – | > 100 | – | – | –
4 | COc1ccc2c(c1)CC[C@@H]1[C@@H]2CC[C@]2(C)C(=O)/C(=C/c3ccc(O)c(OC)c3)C[C@@H]12 | > 100 | > 100 | > 100 | > 100 | > 100 | > 100 | > 100 | > 100 | – | – | – | – | – | – | – | > 100 | – | – | –
5 | COc1ccc(C2C(C=O)C(N3CCN(C)CC3)=Nc3nc4ccccc4n32)cc1 (configuration not stated) | 39.7 | 31.5 | 65.9 | 36.3 | 41.5 | 52.4 | 40 | 39.3 | – | – | – | – | – | – | – | – | – | – | –
6 | O=C(c1cccs1)N(Cc1cccnc1)C(=S)N(Cc1cccnc1)C(=O)c1cccs1 | > 100 | > 100 | > 100 | > 100 | > 100 | > 100 | > 100 | > 100 | – | – | – | – | – | – | – | > 100 | – | – | –
7 | NC(CC(=O)O)(Cc1ccccc1)C(=O)O (configuration not stated) | > 100 | > 100 | > 100 | > 100 | > 100 | > 100 | > 100 | > 100 | – | – | – | – | – | – | – | > 100 | – | – | –
8 | Cn1c(=O)c2c(nc(NCCNc3nc4c(c(=O)n(C)c(=O)n4C)n3C)n2C)n(C)c1=O | > 100 | > 100 | > 100 | – | > 100 | > 100 | > 100 | > 100 | – | – | – | – | – | – | – | > 100 | – | – | –
9 | COc1ccc(C2=NN(C(=O)c3cccnc3)C(O)(c3cc(F)c(Cl)cc3Cl)C2)cc1OC (configuration not stated) | 87.4 | 25 | 69.8 | – | 34.6 | > 100 | > 100 | 29.1 | – | – | – | – | – | – | – | 90 | – | – | –
10 | Nc1nc(=O)n(CC(O)CO)s1 (configuration not stated) | – | > 100 | > 100 | – | > 100 | – | > 100 | > 100 | – | – | – | – | – | – | – | – | > 100 | – | –
11 | O=C(NNC(=O)c1nsc2ccccc12)c1ccc(Cl)cc1 | – | 59.2 | > 100 | – | 36.9 | – | 48.9 | 33.7 | – | – | – | – | – | – | – | – | 39.1 | – | –
12 | Cc1ccc(SSCCCCCS(=O)O)cc1 | – | – | – | – | > 100 | – | 75.4 | 25.7 | – | – | – | – | – | – | – | – | > 100 | – | –
13 | COc1ccc2nc3ccccc3c(NCc3ccc(C)cc3)c2c1 | 2.89 | 3.19 | 4.24 | – | 3.61 | 2.98 | 4.15 | 3.69 | 1.44 | 1.77 | 1.57 | – | 1.69 | 1.59 | 1.97 | – | – | 1.84 | –
14 | COc1ccc(C)cc1Nc1nnc(-c2ccc(N)cc2)s1 | > 100 | > 100 | > 100 | > 100 | > 100 | > 100 | – | – | – | – | – | – | – | – | – | > 100 | – | – | –
15 | O=C(COc1ccc(Cl)cc1Cl)N/N=C/C=C/c1ccc([N+](=O)[O-])o1 | > 100 | 5.26 | > 100 | > 100 | > 100 | > 100 | 91.5 | > 100 | – | – | – | – | – | – | – | > 100 | – | – | –
16 | N#C[S-].[Ce+3].c1cnc2c(c1)ccc1cccnc12.c1cnc2c(c1)ccc1cccnc12.c1cnc2c(c1)ccc1cccnc12 | – | 15.2 | 46.8 | – | 3.42 | 14.3 | 29.9 | 12.6 | – | – | – | – | – | – | – | – | 3.31 | – | 0.555
17 | CC(=O)C1=C(O)CCC1=O | > 100 | > 100 | > 100 | > 100 | > 100 | > 100 | > 100 | > 100 | – | – | – | – | – | – | – | – | – | – | –
18 | CCOC(=O)c1c(CN2CCCC2)n(-c2ccccc2)c2cc(Br)c(OC)cc12 | > 100 | 25.3 | 73.9 | 23.4 | 36.6 | > 100 | 32.5 | 39.1 | – | – | – | – | – | – | – | > 100 | – | – | –
19 | COc1cc2c(cc1OC)-c1cc3ccc(OC)c(OC)c3c[n+]1CC2 | > 100 | > 100 | > 100 | > 100 | > 100 | > 100 | > 100 | > 100 | – | – | – | – | – | – | – | > 100 | – | – | –
